# Measurements from patent US8389557B2, “Triazole derivatives useful as Axl inhibitors” (Rigel Pharmaceuticals, Inc., priority 2005, dated 2013).
# Molecular target: T1, Axl (Homo sapiens, UniProt P30530)
# T1 construct: endogenous in cells; host or cells: HeLa cells
# T1 sequence (P30530 26-894): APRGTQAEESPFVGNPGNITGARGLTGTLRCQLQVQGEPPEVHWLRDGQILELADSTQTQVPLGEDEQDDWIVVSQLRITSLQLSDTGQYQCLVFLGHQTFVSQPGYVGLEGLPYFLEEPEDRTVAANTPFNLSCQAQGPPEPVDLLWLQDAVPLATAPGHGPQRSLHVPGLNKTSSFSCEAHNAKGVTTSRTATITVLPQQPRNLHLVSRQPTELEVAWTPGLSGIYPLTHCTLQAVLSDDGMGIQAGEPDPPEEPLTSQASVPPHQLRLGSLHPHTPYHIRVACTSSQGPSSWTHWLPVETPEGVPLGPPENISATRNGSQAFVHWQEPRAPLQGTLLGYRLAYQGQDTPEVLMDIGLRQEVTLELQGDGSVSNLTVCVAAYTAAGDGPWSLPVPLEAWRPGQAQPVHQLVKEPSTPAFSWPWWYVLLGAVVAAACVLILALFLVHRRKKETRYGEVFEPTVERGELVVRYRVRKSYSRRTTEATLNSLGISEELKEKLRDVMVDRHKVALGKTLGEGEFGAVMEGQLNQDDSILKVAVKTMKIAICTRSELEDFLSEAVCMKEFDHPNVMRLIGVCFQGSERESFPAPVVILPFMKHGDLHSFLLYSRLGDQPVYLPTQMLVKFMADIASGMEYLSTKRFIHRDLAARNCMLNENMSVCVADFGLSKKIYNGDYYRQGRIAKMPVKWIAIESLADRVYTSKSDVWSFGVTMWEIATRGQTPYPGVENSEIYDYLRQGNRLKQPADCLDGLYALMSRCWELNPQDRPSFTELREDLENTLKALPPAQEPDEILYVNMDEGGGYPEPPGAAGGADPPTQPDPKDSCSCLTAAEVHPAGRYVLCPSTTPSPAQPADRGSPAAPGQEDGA
# Test: Phospho-Akt in-cell Western assay (inhibition of Axl activity)
# Assay type: cell-based
# Summary of the method: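 HeLa cells on poly-L-lysine, starved 24 h in 0.5% FCS DMEM with Axl/Fc 500 ng/mL, pre-treated with compound 1 h at 37° C. Axl stimulated 5 min by anti-Axl/anti-mouse antibody cross-linking. Fixed cells probed with anti-phospho-Akt and HRP secondary, chemiluminescence read.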
# [1] = inhibition of Axl activity, Table 1
# [2] = Table 3, Hela cells, Axl antibody cross-linking stimulation, phospho-Akt chemiluminescence
# [3] = Table 7, Hela cells, Axl antibody cross-linking stimulation, phospho-Akt chemiluminescence
# [4] = Table 8, Hela cells, Axl antibody cross-linking stimulation, phospho-Akt chemiluminescence
# [5] = Table 2, Hela cells, Axl antibody cross-linking stimulation, phospho-Akt chemiluminescence
# [6] = inhibition of Axl activity, phospho-Akt in-cell Western assay, Table 1
SMILES,IC50 [3],IC50 [4],also measured
Cc1cccc(C(=O)n2nc(N)nc2Nc2ccc3c(c2)N(C(=O)OC(C)(C)C)CCO3)c1 [compound 167],–,–,"IC50 (Table 6, Hela cells, Axl antibody cross-linking stimulation, phospho-Akt chemiluminescence): > 20 µM"
"CC(C)Oc1cccc(C(=O)n2nc(Nc3ccc(OCCN4CCCCC4)cc3)nc2N)c1 [compound 168, 5-amino-1-(3-(iso-propoxy)phenyl)carbonyl-3-[4-[2-(piperidin-1-yl)ethoxy]phenylamino]-1H-1,2,4-triazole]",–,–,IC50 [1]: < 1 µM
"CC(C)Oc1cccc(C(=O)n2nc(Nc3ccc(OCCN4CCOCC4)cc3)nc2N)c1 [compound 169, 5-amino-1-(3-(iso-propoxy)phenyl)carbonyl-3-[4-[2-(morpholin-4-yl)ethoxy]phenylamino]-1H-1,2,4-triazole]",–,–,IC50 [1]: < 1 µM
"CC(C)Oc1cccc(C(=O)n2nc(Nc3cccc(-c4cnco4)c3)nc2N)c1 [compound 170, 5-amino-1-(3-(iso-propoxy)phenyl)carbonyl-3-[3-(1,3-oxazol-5-yl)phenylamino]-1H-1,2,4-triazole]",–,–,IC50 [1]: 1 to 10 µM
"CC(C)Oc1cncc(C(=O)n2nc(Nc3ccc(OCCN4CCOCC4)cc3)nc2N)c1 [compound 171, 5-amino-1-(3-(iso-propoxy)pyridin-5-yl)carbonyl-3-[4-[2-(morpholin-4-yl)ethoxy]phenylamino]-1H-1,2,4-triazole]",–,–,IC50 [2]: 1 to 10 µM
"COc1ccc(Nc2nc(N)n(C(=O)Nc3ccc(Cl)cc3)n2)cc1 [compound 172, 5-amino-N-(4-chlorophenyl)-3-[4-(methoxy)phenylamino]-1H-1,2,4-triazole-1-carboxamide]",> 20 µM,–,–
"CC(=O)N(C)c1ccc(Nc2nc(N)n(C(=O)Nc3ccc(Cl)cc3)n2)cc1 [compound 174, 3-[4-(acetyl(methyl)amino)phenyl]amino-5-amino-N-(4-chlorophenyl)-1H-1,2,4-triazole-1-carboxamide]",> 20 µM,–,–
"CC(=O)N(C)c1ccc(Nc2nc(N)n(C(=O)Nc3ccc4c(c3)OCO4)n2)cc1 [compound 175, 3-[4-(acetyl(methyl)amino)phenyl]amino-5-amino-N-(1,3-benzodioxol-5-yl)-1H-1,2,4-triazole-1-carboxamide]",1 to 10 µM,–,–
"CC(=O)N(C)c1ccc(Nc2nc(N)nn2C(=O)Nc2ccc3c(c2)OCO3)cc1 [compound 176, 5-[4-(acetyl(methyl)amino)phenyl]amino-3-amino-N-(1,3-benzodioxol-5-yl)-1H-1,2,4-triazole-1-carboxamide]",–,> 20 µM,–
"CC(=O)N(C)c1ccc(Nc2nc(N)n(C(=O)NC3CCCC3)n2)cc1 [compound 177, 3-[4-(acetyl(methyl)amino)phenyl]amino-5-amino-N-cyclopentyl-1H-1,2,4-triazole-1-carboxamide]",> 20 µM,–,–
"CC(=O)N(C)c1ccc(Nc2nc(N)nn2C(=O)NC2CCCC2)cc1 [compound 178, 5-[4-(acetyl(methyl)amino)phenyl]amino-3-amino-N-cyclopentyl-1H-1,2,4-triazole-1-carboxamide]",–,> 20 µM,–
"CC(=O)N(C)c1ccc(Nc2nc(N)n(C(=O)Nc3ccc(C(C)C)cc3)n2)cc1 [compound 179, 3-[4-(acetyl(methyl)amino)phenyl]amino-5-amino-N-(4-(iso-propyl)phenyl)-1H-1,2,4-triazole-1-carboxamide]",1 to 10 µM,–,–
"CCCCOc1ccc(NC(=O)n2nc(Nc3ccc(N(C)C(C)=O)cc3)nc2N)cc1 [compound 180, 3-[4-(acetyl(methyl)amino)phenyl]amino-5-amino-N-(4-(butoxy)phenyl)-1H-1,2,4-triazole-1-carboxamide]",1 to 10 µM,–,–
"CCCCOc1ccc(NC(=O)n2nc(N)nc2Nc2ccc(OCCN3CCCCC3)cc2)cc1 [compound 182, 3-amino-N-(4-(butoxy)phenyl)-5-[4-[2-(piperidin-1-yl)ethoxy]phenylamino]-1H-1,2,4-triazole-1-carboxamide]",–,> 20 µM,–
"Cc1ccc(NC(=O)n2nc(N)nc2Nc2ccc(OCCN3CCCCC3)cc2)cc1 [compound 183, 3-amino-N-(4-(methyl)phenyl)-5-[4-[2-(piperidin-1-yl)ethoxy]phenylamino]-1H-1,2,4-triazole-1-carboxamide]",–,1 to 10 µM,–
"COc1ccc(NC(=O)n2nc(N)nc2Nc2ccc(OCCN3CCCCC3)cc2)cc1 [compound 184, 3-amino-N-(4-(methoxy)phenyl)-5-[4-[2-(piperidin-1-yl)ethoxy]phenylamino]-1H-1,2,4-triazole-1-carboxamide]",–,1 to 10 µM,–

SMILES,IC50 [3],IC50 [4],also measured
"CC(=O)N(C)c1ccc(Nc2nc(N)n(C(=O)NC3CCCCC3)n2)cc1 [compound 185, 3-[4-(acetyl(methyl)amino)phenyl]amino-5-amino-N-cyclohexyl-1H-1,2,4-triazole-1-carboxamide]",> 20 µM,–,–
"Cc1cccc(NC(=O)n2nc(N)nc2Nc2ccc(OCCN3CCCCC3)cc2)c1 [compound 187, 3-amino-N-(3-(methyl)phenyl)-5-[4-[2-(piperidin-1-yl)ethoxy]phenylamino]-1H-1,2,4-triazole-1-carboxamide]",–,1 to 10 µM,–
"COc1cc(NC(=O)n2nc(N)nc2Nc2ccc(OCCN3CCCCC3)cc2)cc(OC)c1 [compound 188, 3-amino-N-(3,5-dimethoxyphenyl)-5-[4-[2-(piperidin-1-yl)ethoxy]phenylamino]-1H-1,2,4-triazole-1-carboxamide]",–,1 to 10 µM,–
"Nc1nc(Nc2ccc(OCCN3CCCCC3)cc2)n(C(=O)NC2CCCCC2)n1 [compound 189, 3-amino-N-cyclohexyl-5-[4-[2-(piperidin-1-yl)ethoxy]phenylamino]-1H-1,2,4-triazole-1-carboxamide]",–,1 to 10 µM,–
"Nc1nc(Nc2ccc(OCCN3CCCCC3)cc2)n(C(=O)NC2CCCC2)n1 [compound 190, 3-amino-N-cyclopentyl-5-[4-[2-(piperidin-1-yl)ethoxy]phenylamino]-1H-1,2,4-triazole-1-carboxamide]",–,> 20 µM,–
"CC(C)Oc1ccc(C(=O)n2nc(N)nc2Nc2ccc(OCCN3CCCC3)cc2)cc1 [compound 191, 3-amino-1-(4-iso-propoxyphenyl)carbonyl-5-[4-[2-(pyrrolidin-1-yl)ethoxy]phenylamino]-1H-1,2,4-triazole]",–,–,IC50 [5]: 1 to 10 µM
"CC(C)Oc1ccc(C(=O)n2nc(N)nc2Nc2ccc(N3CCCCC3)cc2)cc1 [compound 192, 3-amino-1-(4-(iso-propoxy)phenyl)carbonyl-5-[4-(piperidin-1-yl)phenylamino]-1H-1,2,4-triazole]",–,–,IC50 [5]: 10 to 20 µM
"Nc1nc(Nc2ccc(OCCN3CCCCC3)cc2)n(C(=O)Nc2ccc3c(c2)OCO3)n1 [compound 193, 3-amino-N-(1,3-benzodioxol-5-yl)-5-[4-[2-(piperidin-1-yl)ethoxy]phenylamino]-1H-1,2,4-triazole-1-carboxamide]",–,1 to 10 µM,–
"N#Cc1ccc(NC(=O)n2nc(Nc3ccc(OCCN4CCCCC4)cc3)nc2N)cc1 [compound 194, 5-amino-N-(4-cyanophenyl)-3-[4-[2-(piperidin-1-yl)ethoxy]phenylamino]-1H-1,2,4-triazole-1-carboxamide]",> 20 µM,–,–
"Nc1nc(Nc2ccc(OCCN3CCCC3)cc2)nn1C(=O)C1CC2C=CC1C2 (stereo not shown) [compound 196, 5-amino-1-[2-(bicyclo[2.2.1]hept-5-ene)carbonyl]-3-[4-[2-(pyrrolidin-1-yl)ethoxy]phenylamino]-1H-1,2,4-triazole]",–,–,IC50 [2]: > 20 µM
"CN(C)c1cccc(C(=O)n2nc(Nc3ccc(OCCN4CCCC4)cc3)nc2N)c1 [compound 197, 5-amino-1-(3-(dimethylamino)phenyl)carbonyl-3-[4-[2-(pyrrolidin-1-yl)ethoxy]phenylamino]-1H-1,2,4-triazole]",–,–,IC50 [6]: > 20 µM
"COc1ccc(C(=O)n2nc(Nc3ccc(OCCN4CCCC4)cc3)nc2N)cc1OC [compound 198, 5-amino-1-(3,4-(dimethoxy)phenyl)carbonyl-3-[4-[2-(pyrrolidin-1-yl)ethoxy]phenylamino]-1H-1,2,4-triazole]",–,–,IC50 [6]: > 20 µM
"Cc1cc(C)cc(NC(=O)n2nc(Nc3ccc(OCCN4CCCCC4)cc3)nc2N)c1 [compound 199, 5-amino-N-(3,5-(dimethyl)phenyl)-3-[4-[2-(piperidin-1-yl)ethoxy]phenylamino]-1H-1,2,4-triazole-1-carboxamide]",> 20 µM,–,–
"Nc1nc(Nc2ccc(OCCN3CCCC3)cc2)nn1C(=O)C1CC2CCC1C2 (stereo not shown) [compound 200, 5-amino-1-[2-(bicyclo[2.2.1]heptane)carbonyl]-3-[4-[2-(pyrrolidin-1-yl)ethoxy]phenylamino]-1H-1,2,4-triazole]",–,–,IC50 [2]: > 20 µM
"CC(C)(C)OC(=O)n1nc(Nc2ccc(N3CCCCC3)cc2)nc1N [compound 201, 5-amino-3-[4-(piperidin-1-yl)phenylamino]-1-(tert-butoxycarbonyl)-1H-1,2,4-triazole]",> 20 µM,–,–
